Active and inactive are the calls of the source. The rule behind the calls is not given here.
What was measured:
Format in all cases: nucleic-acid assay
Nucleic Acid [1] = assay: Binding affinity to duplex DNA dA22.dT22 assessed as change in melting temperature at 3 uM by UV analysis at 260 nm
Nucleic Acid [2] = assay: Binding affinity to duplex DNA polydA:polydT assessed as increase of CD signal at 360nm and at 200 uM compound concentration
Nucleic Acid [3] = assay: Binding affinity to duplex DNA polydA:polydT assessed as decrease in viscosity at 200 uM

| Compound | ΔTm (Nucleic Acid [1]) | Activity (Nucleic Acid [2]) | Activity (Nucleic Acid [3]) |
| --- | --- | --- | --- |
| Nc1ccc2ccc3cccc4ccc1c2c34 | 2 °C |  |  |
| NC[C@@H]1O[C@H](O[C@H]2[C@@H](O)[C@H](O[C@@H]3[C@@H](O)[C@H](N)C[C@H](N)[C@H]3O[C@H]3O[C@H](CN)[C@@H](O)[C@H](O)[C@H]3N)O[C@@H]2CO)[C@H](N)[C@@H](O)[C@@H]1O | 0 °C |  |  |
| CN1CCN(c2ccc3[nH]c(-c4ccc5[nH]c(-c6ccc(OCCOCCOCCN(CCOCCOCCN)C(=O)CCCc7ccc8ccc9cccc%10ccc7c8c9%10)cc6)nc5c4)nc3c2)CC1 | 16 °C |  |  |
| CN1CCN(c2ccc3[nH]c(-c4ccc5[nH]c(-c6ccc(OCCOCCOCCOCCOCCOCCNC(=S)NCCSCC[C@H]7O[C@@H](O[C@H]8[C@H](O)[C@@H](N)C[C@@H](N)[C@@H]8O[C@H]8O[C@H](CN)[C@@H](O)[C@H](O)[C@H]8N)[C@H](O)[C@@H]7O[C@@H]7O[C@H](CN)[C@H](O)[C@@H](O)[C@@H]7N)cc6)nc5c4)nc3c2)CC1 | 24 °C | Active | Active |
| CN1CCN(c2ccc3[nH]c(-c4ccc5[nH]c(-c6ccc(OCCOCCOCCN(CCOCCOCCNC(=S)NCCSCC[C@H]7O[C@@H](O[C@H]8[C@H](O)[C@@H](N)C[C@@H](N)[C@@H]8O[C@H]8O[C@H](CN)[C@@H](O)[C@H](O)[C@H]8N)[C@H](O)[C@@H]7O[C@@H]7O[C@H](CN)[C@H](O)[C@@H](O)[C@@H]7N)C(=O)CCCc7ccc8ccc9cccc%10ccc7c8c9%10)cc6)nc5c4)nc3c2)CC1 | 35 °C | Active | Active |
| NC[C@H]1O[C@@H](O[C@H]2[C@@H](O)[C@H](O[C@H]3[C@H](O)[C@@H](N)C[C@@H](N)[C@@H]3O[C@H]3O[C@H](CN)[C@@H](O)[C@H](O)[C@H]3N)O[C@@H]2CCSCCNC(=S)NCCOCCOCCNC(=O)CCCc2ccc3ccc4cccc5ccc2c3c45)[C@@H](N)[C@H](O)[C@H]1O | 5 °C |  |  |
| CN1CCN(c2ccc3[nH]c(-c4ccc5[nH]c(-c6ccc(O)cc6)nc5c4)nc3c2)CC1 | 22 °C |  |  |

Source: ChEMBL document CHEMBL1154209, “Triple recognition of B-DNA” (Bioorg Med Chem Lett, 2009)
